Experimental data reported in patent US12378268B2, “Heterocyclic THR-β receptor agonist compound and preparation method and use therefor” (Hepagene Therapeutics (HK) Limited, priority 2019, dated 2025).
Read-outs that look alike come from different tables or passages of the source.

Experiments:
[1] = Drug metabolism experiment on prodrug in SD rats: concentration in liver compared with blood; format: in vivo; conditions: for Kp at 1 h / Kp at 4 h / Kp at 8 h / Kp at 24 h / concentration at 1 h / concentration at 4 h / concentration at 8 h / concentration at 24 h: male, rat, po, 3 mg/kg, SD rats; for Kp at 1 h / Kp at 4 h / Kp at 8 h / Kp at 24 h: read-out: Liver-to-blood ratio
Experimental: (§1) Test 3: Drug metabolism experiment on prodrug in SD rats
(§2) In the experiment, […] of 12 male SD rats having similar body weights were selected and orally administered compound 9, compound 10, and the control drug VK2809 (the prodrug of MB07444, structured as shown below) at a dose of 3 mg/kg at a single time, respectively, and blood and liver samples were collected at different time points.
(§3) Solutions of compound 9/compound 10 and VK2809 with a final concentration of 0.6 mg/mL were respectively prepared, and the ratio between the solvents used for the preparation was PEG400: pure water =50:50 (v/v).
(§4) No randomization was performed. The weights of the animals were measured before administration, and healthy animals with similar body weights were selected for inclusion in the experiment. The oral dose was 3 mg/kg.
(§5) At least 0.2 mL of blood was collected from the tail vein or jugular vein, and heparin sodium was used as the anticoagulant.
(§6) After being collected, a blood sample was placed in a marked ice-water bath centrifuge tube, plasma was quickly separated by centrifugation under centrifugation conditions: 3500 rpm, 10 minutes, and 4° C., and the plasma was stored under −40° C. for testing.
After the liver sample was collected, its surface was washed with normal saline, dried with medical gauze, placed in a labeled small ziplock bag, and stored under −40° C. for testing.
(§7) Q TRAP6500 mass spectrometer with ESI source was used to perform negative ion MRM scanning. An LC-MS/MS analysis method was used to detect the contents of compound 9, compound 10 and its active metabolite 1, VK2809 and its active metabolite MB07444 in the plasma and liver. The metabolic kinetics data analysis software WinNonlin 7.0 was used to calculate the concentration data of plasma, and the non-compartmental model (NCA) method was used to calculate the pharmacokinetic parameters.
The parameters of concentration in the livers of the SD rats and a comparison with the concentration in plasma are shown in Table 3 below: […]

THR-α = target: T1, THR-α (Homo sapiens, UniProt P10827); test: Test of the binding ability of the compound to TRα (TRα LBD/RXRα, biotin-SRC2-2 co-activating peptide, 665/615 nm fluorescence ratio); format: biochemical
T1 construct: TR-a LBD, GST purchased from Thermo Fisher; purchased Thermo Fisher PV4762
T1 sequence (P10827 163-410 isoform P10827-2 limits assumed, other chains not shown): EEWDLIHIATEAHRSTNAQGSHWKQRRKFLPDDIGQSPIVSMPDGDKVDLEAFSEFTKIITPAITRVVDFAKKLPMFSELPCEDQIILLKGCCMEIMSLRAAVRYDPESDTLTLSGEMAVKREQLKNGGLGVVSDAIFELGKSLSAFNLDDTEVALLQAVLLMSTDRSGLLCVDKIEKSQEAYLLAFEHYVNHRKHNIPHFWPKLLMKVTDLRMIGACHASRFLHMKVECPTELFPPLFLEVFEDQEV
T1 sequence (P19793 whole entry partner, other chains not shown, the tested form may be a part): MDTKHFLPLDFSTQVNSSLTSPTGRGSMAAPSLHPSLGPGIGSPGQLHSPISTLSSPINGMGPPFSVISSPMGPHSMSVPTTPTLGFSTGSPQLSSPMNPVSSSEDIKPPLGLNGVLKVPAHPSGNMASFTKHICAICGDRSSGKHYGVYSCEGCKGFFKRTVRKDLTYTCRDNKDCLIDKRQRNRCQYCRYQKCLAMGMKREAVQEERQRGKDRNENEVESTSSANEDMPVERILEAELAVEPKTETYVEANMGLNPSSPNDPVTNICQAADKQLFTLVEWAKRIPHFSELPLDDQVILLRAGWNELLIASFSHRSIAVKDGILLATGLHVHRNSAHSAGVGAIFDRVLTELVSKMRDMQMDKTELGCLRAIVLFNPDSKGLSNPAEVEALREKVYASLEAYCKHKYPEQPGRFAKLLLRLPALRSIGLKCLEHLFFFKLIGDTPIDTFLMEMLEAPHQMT
Experimental: (§8) 4.2 The activity percentage was calculated as follows: […]
(§9) RatioCompound: Average of the relative ratios of the compound wells of the embodiments
(§10) RatioPositive: Average of the relative ratios of all positive control wells.
(§11) RatioBlank: Average of the relative ratios of all negative control wells.
(§12) EC50 was calculated by fitting the relationship between activity (%) and compound logarithmic concentration with Graphpad 5.0 by a nonlinear regression method.
(§13) Y=Bottom+ (top-bottom)/(1+10^((LogEC50−X)*slope))
(§14) X: Compound logarithmic concentration Y: Percentage activity

THR-β = target: T2, THR-β (Homo sapiens, UniProt P10828); test: Test of the binding ability of the compound to TRβ (TRβ LBD/RXR, biotin-SRC2-2 co-activating peptide, 665/615 nm fluorescence ratio); format: biochemical
T2 construct: TRB LBD, GST purchased from Thermo Fisher; purchased Thermo Fisher PV4762
T2 sequence (P10828 217-461 limits assumed, other chains not shown): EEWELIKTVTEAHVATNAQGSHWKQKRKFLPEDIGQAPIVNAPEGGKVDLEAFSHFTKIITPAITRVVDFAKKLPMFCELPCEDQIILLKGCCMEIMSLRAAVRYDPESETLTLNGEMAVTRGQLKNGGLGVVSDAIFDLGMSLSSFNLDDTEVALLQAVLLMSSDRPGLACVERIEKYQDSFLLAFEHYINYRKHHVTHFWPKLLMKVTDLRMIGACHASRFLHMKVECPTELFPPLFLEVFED
T2 sequence (P28702 whole entry partner, other chains not shown, the tested form may be a part): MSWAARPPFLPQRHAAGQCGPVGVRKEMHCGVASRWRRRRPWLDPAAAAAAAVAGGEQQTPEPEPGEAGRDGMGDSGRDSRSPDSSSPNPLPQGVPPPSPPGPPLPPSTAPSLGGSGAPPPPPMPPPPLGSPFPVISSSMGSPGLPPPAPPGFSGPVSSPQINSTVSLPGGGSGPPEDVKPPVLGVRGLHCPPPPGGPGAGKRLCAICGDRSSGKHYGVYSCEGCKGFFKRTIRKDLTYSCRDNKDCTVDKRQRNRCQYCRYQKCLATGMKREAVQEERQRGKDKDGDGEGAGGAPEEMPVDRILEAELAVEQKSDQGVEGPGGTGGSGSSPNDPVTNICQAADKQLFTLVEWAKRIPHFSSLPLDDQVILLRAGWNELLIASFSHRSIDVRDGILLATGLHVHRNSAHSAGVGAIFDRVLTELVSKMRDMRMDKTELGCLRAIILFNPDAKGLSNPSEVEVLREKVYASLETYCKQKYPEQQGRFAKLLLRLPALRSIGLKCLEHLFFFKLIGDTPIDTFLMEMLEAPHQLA
Experimental: 1. Main experimental materials and instruments:
Biotin-SRC2-2 co-activating peptide purchased from Sangon Biotech (Shanghai) Co., Ltd.
TRB LBD, GST purchased from Thermo Fisher (product No. PV4762)
Europium-conjugated anti-glutathione antibody purchased from Cisbio (product No. 61GSTKLB)
Streptavidin-D2 purchased from Cisbio (product No. 610SADAB)
as §8, §9, §10, §11, §12, §13, §14

[2] = Drug metabolism experiment on prodrug in SD rats: plasma pharmacokinetic parameters; format: in vivo; conditions: plasma; for AUC(0-inf) / AUC(0-t) / Tmax / half-life / Cmax: male, Sprague-Dawley (SD), rat, po, 3 mg/kg
Experimental: as §1, §2, §3, §4, §5
15 min, 30 min, 1 h, 2 h, 4 h, 6 h, 8 h, 24 h after administration.
as §6, §7

[3] = Sprague-Dawley (SD), liver / plasma (heading prints blood), oral 3 mg/kg Compound 9
[4] = Sprague-Dawley (SD), liver / plasma (heading prints blood), oral 3 mg/kg Compound 10
[5] = Sprague-Dawley (SD), liver, oral 3 mg/kg Compound 9, read-out: Ct Liver
[6] = Sprague-Dawley (SD), liver, oral 3 mg/kg Compound 10, read-out: Ct Liver
[7] = Sprague-Dawley (SD), plasma (heading prints blood), oral 3 mg/kg Compound 10, read-out: Ct Blood
[8] = Sprague-Dawley, plasma, oral 3 mg/kg Compound 9, read-out: Ct Blood
[9] = activity relative to positive control

Kp at 1 h [1, 3]: 20.8
Kp at 1 h [1, 4]: 29.1
Kp at 4 h [1, 3]: 16.2
Kp at 4 h [1, 4]: 20.6
Kp at 8 h [1, 3]: 25.5
Kp at 8 h [1, 4]: 17.7
Kp at 24 h [1, 3]: 47.1
concentration at 1 h [1, 5]: 312 ng/g
concentration at 1 h [1, 6]: 693 ng/g
concentration at 4 h [1, 5]: 1560 ng/g
concentration at 4 h [1, 6]: 2580 ng/g
concentration at 8 h [1, 5]: 762 ng/g
concentration at 8 h [1, 6]: 1710 ng/g
concentration at 24 h [1, 5]: 396 ng/g
concentration at 1 h [1, 7]: 5.4 ng/g
concentration at 4 h [1, 7]: 28.4 ng/g
concentration at 8 h [1, 7]: 43.6 ng/g
concentration at 24 h [1, 7]: 3.83 ng/g
concentration at 24 h ([1]; Sprague-Dawley, liver, oral 3 mg/kg Compound 10, read-out: Ct Liver): 431 ng/g
Kp at 24 h ([1]; Sprague-Dawley, liver/plasma, oral 3 mg/kg Compound 10): 121
concentration at 1 h [1, 8]: 15 ng/g
concentration at 4 h [1, 8]: 96.3 ng/g
concentration at 8 h [1, 8]: 29.9 ng/g
concentration at 24 h [1, 8]: 8.4 ng/g
EC50 (THR-α): 41 nM
Emax (THR-α; [9]): 96.4%
EC50 (THR-β): 12 nM
Emax (THR-β; [9]): 104%
α/β selectivity (multiple) (THR-β; calculated after being standardized with T3): 7.0 multiple
AUC(0-inf) ([2]; oral 3 mg/kg Compound 9): 1350 ng·h/mL
AUC(0-t) ([2]; oral 3 mg/kg Compound 9): 1290 ng·h/mL
Tmax ([2]; oral 3 mg/kg Compound 9): 4.67 h
half-life ([2]; oral 3 mg/kg Compound 9): 4.82 h
AUC(0-inf) ([2]; oral 3 mg/kg Compound 10): 613 ng·h/mL
AUC(0-t) ([2]; oral 3 mg/kg Compound 10): 586 ng·h/mL
Tmax ([2]; oral 3 mg/kg Compound 10): 6.67 h
half-life ([2]; oral 3 mg/kg Compound 10): 4.59 h
Cmax ([2]; oral 3 mg/kg Compound 9, read-out: Cmax): 134 ng/mL
Cmax ([2]; oral 3 mg/kg Compound 10, read-out: Cmax): 45.1 ng/mL
Kel ([2]; oral 3 mg/kg Compound 9): 0.147 h⁻¹
Kel ([2]; oral 3 mg/kg Compound 10): 0.154 h⁻¹
SMILES: Cc1cc(OCP(=O)(O)O)cc(C)c1Cc1ccc(O)c2c1CCC2(C)C [Compound 1, ((4-((7-hydroxy-1,1-dimethyl-2,3-dihydro-1H-indene-4-position)methyl)-3,5-dimethylphenoxy)methyl) phosphoric acid]
absolute concentration of active metabolite in the liver compared with control drug VK2809 ([1]; after prodrug compound 9, in words): higher than that of the control drug VK2809
liver-to-blood ratio compared with control drug ([1]; after prodrug compound 10, in words): significantly higher than that of the control drug
absolute concentration of active metabolite in the liver compared with MB07444 from VK2809 ([1]; after prodrug compound 10, same prodrug dose, in words): at least three times that of the active metabolite drug MB07444
activity for THR-β compared with MB07444 (THR-β; in words): much higher than that of the contrast compound MB07444
